Reference: US12521377B2, “Uses of (+)-B-dihydrotetrabenazine in methods of treating movement disorder” (ADEPTIO PHARMACEUTICALS LIMITED, priority 2017, dated 2026)
“Also recorded” adds a separate entry of the source.

Columns and labels:
[1] = Pharmacokinetic study, single-dose oral administration of tetrabenazine 25 mg to healthy adult male volunteers: plasma levels of tetrabenazine and DHTBZ isomers; assay type: in vivo, human; settings: for status as metabolite of tetrabenazine in humans: single and multiple dose tetrabenazine 25 mg, Tables 1 and 2; for Kel: N=08, unit not given
Method: (§1) A pharmacokinetic study was carried out in healthy adult male volunteers under fasting conditions at a dose of single and multiple oral administration of 25 mg tablets once a day to ascertain the plasma levels of +/−α and +/−β dihydro-tetrabenazine.
Table 1 summarises the pharmacokinetic data obtained following single-dose oral administration of tetrabenazine at a dose level of 25 mg (fasting, N=08).

[2] = system: male CD rats; test: Amphetamine induced locomotor activity and stereotypies in the open field arena; assay type: in vivo, rat; settings: amphetamine at t=30 min; for normalised total distance travelled, compared to vehicle-amphetamine group / normalised total stereotypic behaviour, compared to vehicle-amphetamine group: listed as (+)-β-DHTBZ
Method: Resulting locomotor activity was evaluated in 3 min bins and as a total over the testing period. […] Resulting stereotypic activity was evaluated in 3 min bins and as a total over the testing period.

[3] = biological target: Chromaffin Granule Monoamine Transporter (Bos taurus, UniProt Q27963); settings: cited from earlier work
[4] = rat brain, stereochemistry not disclosed; cited from earlier work
[5] = Pharmacokinetic study, multiple-dose oral administration of tetrabenazine 25 mg once a day to healthy adult male volunteers: plasma levels; assay type: in vivo; settings: multiple-dose oral tetrabenazine 25 mg once a day, fasting, N=07, human plasma
Method: as §1
Table 2 summarises the pharmacokinetic data obtained following multiple-dose oral administration of tetrabenazine at a dose level of 25 mg (fasting, N=07).

[6] = single-dose oral tetrabenazine 25 mg, fasting
[7] = single-dose oral tetrabenazine 25 mg, fasting, N=08, human plasma

Sequence of Chromaffin Granule Monoamine Transporter (Q27963 whole entry): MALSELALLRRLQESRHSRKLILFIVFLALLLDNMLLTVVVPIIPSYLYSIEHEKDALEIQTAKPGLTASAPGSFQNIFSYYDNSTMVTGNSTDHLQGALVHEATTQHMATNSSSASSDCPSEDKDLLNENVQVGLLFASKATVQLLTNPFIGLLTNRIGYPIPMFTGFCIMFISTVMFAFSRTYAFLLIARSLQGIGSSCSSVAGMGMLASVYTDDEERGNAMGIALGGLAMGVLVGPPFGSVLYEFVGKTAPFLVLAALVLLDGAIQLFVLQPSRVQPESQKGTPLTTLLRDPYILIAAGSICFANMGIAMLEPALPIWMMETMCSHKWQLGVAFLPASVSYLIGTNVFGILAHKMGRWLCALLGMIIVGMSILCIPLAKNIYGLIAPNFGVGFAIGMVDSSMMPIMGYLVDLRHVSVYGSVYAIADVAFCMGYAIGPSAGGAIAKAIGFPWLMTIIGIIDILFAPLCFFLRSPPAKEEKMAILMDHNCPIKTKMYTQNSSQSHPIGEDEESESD

COc1cc2c(cc1OC)[C@H]1C[C@H](O)[C@H](CC(C)C)CN1CC2 [(+)-β-dihydrotetrabenazine, (S,R,R)-3-isobutyl-9,10-dimethyloxy-1,3,4,5,7,11b-hexahydro-2H-pyrido[2,1-a]isoquinolin-2-ol]
status as metabolite of tetrabenazine in humans [1]: major metabolites; also recorded: main metabolites
Kel [1, 6]: 0.13
normalised total stereotypic behaviour, compared to vehicle-vehicle group ([2]; 2.5 mg/kg at t=0 min): significantly different
normalised total distance travelled, compared to vehicle-amphetamine group ([2]; 2.5 mg/kg at t=0 min): lower locomotor activity
normalised total stereotypic behaviour, compared to vehicle-amphetamine group ([2]; 2.5 mg/kg at t=0 min): significantly different; also recorded: reduced stereotypic behaviour
normalised total stereotypic behaviour, compared to vehicle-vehicle group ([2]; 5 mg/kg at t=0 min): significantly different
normalised total distance travelled, compared to vehicle-amphetamine group ([2]; 5 mg/kg at t=0 min): lower locomotor activity
normalised total stereotypic behaviour, compared to vehicle-amphetamine group ([2]; 5 mg/kg at t=0 min): significantly different; also recorded: reduced stereotypic behaviour

COc1cc2c(cc1OC)[C@H]1C[C@@H](O)[C@H](CC(C)C)CN1CC2 [(+)-α-dihydrotetrabenazine]
status as metabolite of tetrabenazine in humans [1]: minor metabolites
Kel [1, 6]: 0.17
more active than the (+)-β-isomer ([3]; earlier findings, as worded): 3- to 4 times

COc1cc2c(cc1OC)C1CC(O)C(CC(C)C)CN1CC2 (stereo not shown) [dihydrotetrabenazine, 2-hydroxy-3-(2-methylpropyl)-1,3,4,6,7,11b-hexahydro-9,10-dimethoxy-benzo(a)quinolizine]
crossing of the blood-brain barrier [4]: able to cross the blood-brain barrier

COc1cc2c(cc1OC)[C@@H]1C[C@@H](O)[C@@H](CC(C)C)CN1CC2 [(−)-β-dihydrotetrabenazine]
status as metabolite of tetrabenazine in humans [1]: minor metabolites
Cmax ([1]; single dose study, tetrabenazine administered to adult male humans): 5.28 ng/mL
area under the curve (AUC) ([1]; single dose study, tetrabenazine administered to adult male humans (unit not given)): 16.28
AUC(0-inf.) [1, 7]: 18.77 ng·h/mL
AUC(0-t) [1, 7]: 16.28 ng·h/mL
Cmax [1, 7]: 5.28 ng/mL
Extrapolated AUC [1, 7]: 17.66%
Half-life (Mean) [1, 7]: 12.98 h
Tmax Mean [1, 7]: 1.03 h
Kel [1, 6]: 0.45
AUC(0-t) [5]: 25.17 ng·h/mL
Cmaxss [5]: 7.78 ng/mL
Cminss [5]: 0.16 ng/mL
Ctss [5]: 0.57 ng/mL
Tmaxss Mean [5]: 97.11 h

α-dihydrotetrabenazine
higher affinity than the β-isomer ([3]; racemic α- versus racemic β-dihydrotetrabenazine, in vitro): 3- to 4 fold

COc1cc2c(cc1OC)[C@@H]1C[C@H](O)[C@@H](CC(C)C)CN1CC2 [(−)-α-dihydrotetrabenazine]
status as metabolite of tetrabenazine in humans [1]: major metabolites; also recorded: main metabolites
Kel [1, 6]: 0.10

COc1cc2c(cc1OC)C1CC(=O)C(CC(C)C)CN1CC2 (racemic) [Tetrabenazine, 1,3,4,6,7,11b-hexahydro-9,10-dimethoxy-3-(2-methylpropyl)-2H-benzo(a)quinolizin-2-one]
Kel [1, 6]: 0.19
